Assays:
Type in all cases: functional
Settings in all cases: read-out: Activity
HL-60(TB) = test: Cytotoxicity against human HL-60(TB) cells assessed as cell viability at 10 uM incubated for 48 hrs by sulforhodamine B assay relative to control
MDA-MB-468 = test: Cytotoxicity against human MDA-MB-468 cells assessed as cell viability at 10 uM incubated for 48 hrs by sulforhodamine B assay relative to control
OVCAR-5 = test: Cytotoxicity against human OVCAR-5 cells assessed as cell viability at 10 uM incubated for 48 hrs by sulforhodamine B assay relative to control
IGROV-1 = test: Cytotoxicity against human IGROV-1 cells assessed as cell viability at 10 uM incubated for 48 hrs by sulforhodamine B assay relative to control
OVCAR-4 = test: Cytotoxicity against human OVCAR-4 cells assessed as cell viability at 10 uM incubated for 48 hrs by sulforhodamine B assay relative to control
RPMI-8226 = test: Cytotoxicity against human RPMI-8226 cells assessed as cell viability at 10 uM incubated for 48 hrs by sulforhodamine B assay relative to control
K562 = test: Cytotoxicity against human K562 cells assessed as cell viability at 10 uM incubated for 48 hrs by sulforhodamine B assay relative to control
Hs-578T = test: Cytotoxicity against human HS-578T cells assessed as cell viability at 10 uM incubated for 48 hrs by sulforhodamine B assay relative to control
CCRF-CEM = test: Cytotoxicity against human CCRF-CEM cells assessed as cell viability at 10 uM incubated for 48 hrs by sulforhodamine B assay relative to control
COLO 205 = test: Cytotoxicity against human COLO 205 cells assessed as cell viability at 10 uM incubated for 48 hrs by sulforhodamine B assay relative to control
MOLT-4 = test: Cytotoxicity against human MOLT-4 cells assessed as cell viability at 10 uM incubated for 48 hrs by sulforhodamine B assay relative to control
OVCAR-3 = test: Cytotoxicity against human OVCAR-3 cells assessed as cell viability at 10 uM incubated for 48 hrs by sulforhodamine B assay relative to control
SN12C = test: Cytotoxicity against human SN12C cells assessed as cell viability at 10 uM incubated for 48 hrs by sulforhodamine B assay relative to control
NCI-H460 = test: Cytotoxicity against human NCI-H460 cells assessed as cell viability at 10 uM incubated for 48 hrs by sulforhodamine B assay relative to control
HOP-92 = test: Cytotoxicity against human HOP-92 cells assessed as cell viability at 10 uM incubated for 48 hrs by sulforhodamine B assay relative to control
SR = test: Cytotoxicity against human SR cells assessed as cell viability at 10 uM incubated for 48 hrs by sulforhodamine B assay relative to control
KM12 = test: Cytotoxicity against human KM12 cells assessed as cell viability at 10 uM incubated for 48 hrs by sulforhodamine B assay relative to control
NCI/ADR-RES = test: Cytotoxicity against human NCI/ADR-RES cells assessed as cell viability at 10 uM incubated for 48 hrs by sulforhodamine B assay relative to control
MDA-MB-435 = test: Cytotoxicity against human MDA-MB-435 cells assessed as cell viability at 10 uM incubated for 48 hrs by sulforhodamine B assay relative to control
TK-10 = test: Cytotoxicity against human TK-10 cells assessed as cell viability at 10 uM incubated for 48 hrs by sulforhodamine B assay relative to control
SF-268 = test: Cytotoxicity against human SF-268 cells assessed as cell viability at 10 uM incubated for 48 hrs by sulforhodamine B assay relative to control
NCI-H226 = test: Cytotoxicity against human NCI-H226 cells assessed as cell viability at 10 uM incubated for 48 hrs by sulforhodamine B assay relative to control
UACC-62 = test: Cytotoxicity against human UACC-62 cells assessed as cell viability at 10 uM incubated for 48 hrs by sulforhodamine B assay relative to control
DU-145 = test: Cytotoxicity against human DU-145 cells assessed as cell viability at 10 uM incubated for 48 hrs by sulforhodamine B assay relative to control
ACHN = test: Cytotoxicity against human ACHN cells assessed as cell viability at 10 uM incubated for 48 hrs by sulforhodamine B assay relative to control
SNB-19 = test: Cytotoxicity against human SNB-19 cells assessed as cell viability at 10 uM incubated for 48 hrs by sulforhodamine B assay relative to control
HOP-62 = test: Cytotoxicity against human HOP-62 cells assessed as cell viability at 10 uM incubated for 48 hrs by sulforhodamine B assay relative to control
U-251 = test: Cytotoxicity against human U-251 cells assessed as cell viability at 10 uM incubated for 48 hrs by sulforhodamine B assay relative to control
EKVX = test: Cytotoxicity against human EKVX cells assessed as cell viability at 10 uM incubated for 48 hrs by sulforhodamine B assay relative to control
A549 = test: Cytotoxicity against human A549 cells assessed as cell viability at 10 uM incubated for 48 hrs by sulforhodamine B assay relative to control
NCI-H522 = test: Cytotoxicity against human NCI-H522 cells assessed as cell viability at 10 uM incubated for 48 hrs by sulforhodamine B assay relative to control
BT-549 = test: Cytotoxicity against human BT-549 cells assessed as cell viability at 10 uM incubated for 48 hrs by sulforhodamine B assay relative to control
NCI-H23 = test: Cytotoxicity against human NCI-H23 cells assessed as cell viability at 10 uM incubated for 48 hrs by sulforhodamine B assay relative to control
SNB-75 = test: Cytotoxicity against human SNB-75 cells assessed as cell viability at 10 uM incubated for 48 hrs by sulforhodamine B assay relative to control
SK-MEL-28 = test: Cytotoxicity against human SK-MEL-28 cells assessed as cell viability at 10 uM incubated for 48 hrs by sulforhodamine B assay relative to control
MDA-MB-231 = test: Cytotoxicity against human MDA-MB-231 cells assessed as cell viability at 10 uM incubated for 48 hrs by sulforhodamine B assay relative to control
PC-3 = test: Cytotoxicity against human PC-3 cells assessed as cell viability at 10 uM incubated for 48 hrs by sulforhodamine B assay relative to control
M14 = test: Cytotoxicity against human M14 cells assessed as cell viability at 10 uM incubated for 48 hrs by sulforhodamine B assay relative to control
SW-620 = test: Cytotoxicity against human SW-620 cells assessed as cell viability at 10 uM incubated for 48 hrs by sulforhodamine B assay relative to control
OVCAR-8 = test: Cytotoxicity against human OVCAR-8 cells assessed as cell viability at 10 uM incubated for 48 hrs by sulforhodamine B assay relative to control
786-0 = test: Cytotoxicity against human 786-0 cells assessed as cell viability at 10 uM incubated for 48 hrs by sulforhodamine B assay relative to control

SMILES: O=S(=O)(NCCCNc1nccc(-c2c(-c3cccc(F)c3)nc3sccn23)n1)c1ccc(Cl)cc1
- viability at 10 µM (HL-60(TB)): 106%
- viability at 10 µM (MDA-MB-468): 63.6%
- viability at 10 µM (OVCAR-5): 125%
- viability at 10 µM (IGROV-1): 42.7%
- viability at 10 µM (OVCAR-4): 61.4%
- viability at 10 µM (RPMI-8226): 55.3%
- viability at 10 µM (K562): 31.7%
- viability at 10 µM (Hs-578T): 94.6%
- viability at 10 µM (CCRF-CEM): 46.6%
- viability at 10 µM (COLO 205): 41.3%
- viability at 10 µM (MOLT-4): 48.3%
- viability at 10 µM (OVCAR-3): 79.8%
- viability at 10 µM (SN12C): 65.9%
- viability at 10 µM (NCI-H460): 75.4%
- viability at 10 µM (HOP-92): 85.7%
- viability at 10 µM (SR): 92.9%
- viability at 10 µM (KM12): 72.7%
- viability at 10 µM (NCI/ADR-RES): 67.4%
- viability at 10 µM (MDA-MB-435): 53.1%
- viability at 10 µM (TK-10): 99%
- viability at 10 µM (SF-268): 76.3%
- viability at 10 µM (NCI-H226): 46.9%
- viability at 10 µM (UACC-62): 40.4%
- viability at 10 µM (DU-145): 78.2%
- viability at 10 µM (ACHN): 60%
- viability at 10 µM (SNB-19): 93%
- viability at 10 µM (HOP-62): 102%
- viability at 10 µM (U-251): 90.2%
- viability at 10 µM (EKVX): 75.4%
- viability at 10 µM (A549): 66.9%
- viability at 10 µM (NCI-H522): 57.4%
- viability at 10 µM (BT-549): 85.4%
- viability at 10 µM (NCI-H23): 86%
- viability at 10 µM (SNB-75): 102%
- viability at 10 µM (SK-MEL-28): 92.3%
- viability at 10 µM (MDA-MB-231): 77.9%
- viability at 10 µM (PC-3): 52%
- viability at 10 µM (M14): 66.1%
- viability at 10 µM (SW-620): 104%
- viability at 10 µM (OVCAR-8): 50.2%
- viability at 10 µM (786-0): 83.6%

SMILES: O=S(=O)(NCCCNc1nccc(-c2c(-c3cccc(F)c3)nc3sccn23)n1)c1ccc(C(F)(F)F)cc1
- viability at 10 µM (HL-60(TB)): 127%
- viability at 10 µM (MDA-MB-468): 102%
- viability at 10 µM (OVCAR-5): 129%
- viability at 10 µM (IGROV-1): 66.2%
- viability at 10 µM (OVCAR-4): 93%
- viability at 10 µM (RPMI-8226): 87.4%
- viability at 10 µM (K562): 69.8%
- viability at 10 µM (Hs-578T): 83.5%
- viability at 10 µM (CCRF-CEM): 89.4%
- viability at 10 µM (COLO 205): 91%
- viability at 10 µM (MOLT-4): 62%
- viability at 10 µM (OVCAR-3): 92.8%
- viability at 10 µM (SN12C): 89%
- viability at 10 µM (NCI-H460): 98.7%
- viability at 10 µM (HOP-92): 94.8%
- viability at 10 µM (SR): 109%
- viability at 10 µM (KM12): 88.5%
- viability at 10 µM (NCI/ADR-RES): 87.2%
- viability at 10 µM (MDA-MB-435): 74.2%
- viability at 10 µM (TK-10): 107%
- viability at 10 µM (SF-268): 75.6%
- viability at 10 µM (NCI-H226): 77.5%
- viability at 10 µM (UACC-62): 80.4%
- viability at 10 µM (DU-145): 94.7%
- viability at 10 µM (ACHN): 87.8%
- viability at 10 µM (SNB-19): 96.1%
- viability at 10 µM (HOP-62): 104%
- viability at 10 µM (U-251): 95.1%
- viability at 10 µM (EKVX): 87.3%
- viability at 10 µM (A549): 83.5%
- viability at 10 µM (NCI-H522): 85.5%
- viability at 10 µM (BT-549): 99.8%
- viability at 10 µM (NCI-H23): 90%
- viability at 10 µM (SNB-75): 86.4%
- viability at 10 µM (SK-MEL-28): 116%
- viability at 10 µM (MDA-MB-231): 96.5%
- viability at 10 µM (PC-3): 67.8%
- viability at 10 µM (M14): 92.4%
- viability at 10 µM (SW-620): 115%
- viability at 10 µM (OVCAR-8): 75.7%
- viability at 10 µM (786-0): 80.1%

Reference: ChEMBL document CHEMBL4665642, “Anticancer profile of newly synthesized BRAF inhibitors possess 5-(pyrimidin-4-yl)imidazo[2,1-b]thiazole scaffold” (Bioorg Med Chem, 2019)
